Laboratory results as given in patent US12622917B2, “High-activity Wnt pathway inhibitor compound” (ADLAI NORTYE BIOPHARMA CO., LTD., priority 2020, dated 2026).

How the values were obtained:
Type in all cases: cell-based
Colo205 = test: Proliferation inhibition, Wnt mutant cell line Colo205; details: Homo sapiens, COLO 205; Colo205, Wnt pathway-dependent, 96 hours; read-out: Antiproliferative IC50 Colo205
Excerpt: (§1) The cell lines used in the experiment are Colo205 and DU4475 cell lines whose Wnt pathway is continuously activated and whose proliferation is Wnt pathway-dependent; while the BELA and RKO cell lines, whose Wnt pathway is not activated under normal circumstances and the proliferation is independent of Wnt pathway, as control cell lines. It is Judged that the inhibitory effect of the compound of the present invention on Wnt-dependent proliferation is not caused by other non-specific toxicity.
(§2) Treat the Colo205, Du4475, HELA and RKO cell lines cultured in their respective mediums in the logarithmic growth phase, collect the cells and prepare a uniform cell suspension of known concentration, and then add it to the 96-well cell culture plate Cell suspension, so that each well contains 1000 cells. Put it into a 5% CO2 incubator and incubate at 37° C. for 20-24 h. On the second day, the fully dissolved, 3-fold serially diluted compound was added to each cell culture well, so that the final maximum concentration in the cell culture well was 20 uM, and the culture was continued for 96 hours. In this test, Promega's cell viability detection test is used for detection. The more the cells proliferate, the stronger the final signal intensity will be. The detection instrument is SpectraMax, full wavelength mode. The wells only added with DMSO were used as positive control wells, and the wells that were not inoculated with cells were used as negative control wells. […] The IC50 value of cell proliferation inhibition was used to evaluate the inhibitory effect of the compound on the Wnt pathway and the toxic effect on normal cells (Table 2).

DU4475 = test: Proliferation inhibition, Wnt mutant cell line DU4475; details: Homo sapiens, DU-4475; DU4475, Wnt pathway-dependent, 96 hours; read-out: Antiproliferative IC50 DU4475
Excerpt: as §1, §2

RKO = test: Proliferation inhibition, non-Wnt mutant control cell line RKO; details: Homo sapiens, Wnt-independent control cell line, 96 hours, read-out: Antiproliferative IC50 RKO
Excerpt: as §1, §2

[1] = system: Colo205-LUC-TCF/LEF M1 reporter cell line (Wnt pathway); test: Colo205-LUC-TCF/LEF M1 reporter gene (luciferase) inhibition; details: 4 hours incubation, luciferase readout
Excerpt: Colo205 cell line (Cell Bank of Chinese Academy of Sciences, Cat #TCHu102) was purchased from the Cell Bank of Chinese Academy of Sciences. After expansion and subculture, in the exponential growth phase of the cells, transfection with lipo3000 liposome transfection with TCF/LEF transcription factors Driven luciferase reporter plasmid (Promega). […] The plasmid carries a resistance gene for resistance screening. Transfection was carried out in 10 cm culture dishes using conventional complete medium without resistance. After 2 days, the medium with resistance was replaced, and the culture was continued. After that, the resistant medium was replaced every 2 days, and the suspended cells were discarded. The original medium was centrifuged to remove cells and debris and retained as an adaptive medium. When the cells covered the culture dish, the cells were digested, counted, and passaged in a 96-well plate, so that the average number of cells contained in each well was 1.5/well, and the adaptive medium was used for passage. The rest of the cells were frozen. After subculture, culture for 4 hours to allow the cells to adhere to the wall, and then observe the number of cells in each well under a microscope. Wells with only 1 cell per well were labeled as monoclonal wells. Afterwards, normal culture was performed, and the culture medium was replaced every 2 days, and observed. There are holes where the monoclonal cells continue to grow in the early stage, and they are labeled twice, and can be replaced with normal resistant medium. When a monoclonal well was overgrown with a 96-well plate, it is digested and passaged to a 24-well culture plate. After the 24-well plate is overgrown, it is passaged to a 96-well plate and a 6-well plate. The cells in a 96-well plate are at least 6 wells, of which 3 wells were added with known Wnt inhibitors, and the other 3 wells were not treated. After 24 hours, the cells in the 96-well plate were added with a fluorescence detection reagent to detect the fluorescence intensity. Cell lines with fluorescent expression when not treated and decreased fluorescent light after inhibition were selected and further cultured. The Colo205-LUC-TCF/LEF-M1 cell line is one of the cell lines screened above. Its growth curve, cell shape, and cell growth state are similar to those of the original Colo205 cells, and the ratio of the fluorescent signals of the inhibitor-treated and untreated cells is the largest among all cell lines, and the ratio can reach 4-5 times when inhibited at 4 hours, which was completely suitable for the screening of Wnt inhibitors in the later stage.
The Colo205-LUC-TCF/LEF M1 cell line is a reporter tool cell stably transfected with the pGL4.49-LUC2-TCF/LEF vector. The β-catenin Wnt pathway is continuously activated. After adding the inhibitor, the Wnt pathway is inhibited. The expression of firefly luciferase regulated by the[…] cis-element decreased, and after adding the detection substrate, the detected light signal decreased accordingly, so as to detect the inhibitory effect of the compound.
To a 96-well cell culture plate, add 100 uL of the compound with a maximum concentration of 20 uM to each well, and make a 3-fold serial dilution of the compound concentration. Then 10,000 colo205 cells stably transfected with the reporter gene and 100 uL medium were inoculated into each well, and corresponding positive and negative control wells were made at the same time. Put the cells in a 5% CO2 incubator and incubate at 37° C. for 4 hours. After 4 hours, remove the culture medium, add 100 uL of reagent (Promega) containing the corresponding firefly luciferase substrate to each well, and measure the activity of luciferase reporter gene. Luminescence intensity was read with SpectraMax in full wavelength mode. […]

HepG2 = test: Proliferation inhibition, HepG2 cell line; details: Homo sapiens; HepG2 cells, 96 hours culture, cell viability detection; read-out: Antiproliferative IC50 HepG2
Excerpt: The cell lines used in the test are NCI-H929 and HepG2 cell lines whose Wnt pathway is continuously activated and whose proliferation is Wnt pathway-dependent; the inhibitory effect of the compound of the present invention on Wnt-dependent proliferation is judged.
Treat the NCI-H929 and HepG2 cell lines cultured in their respective mediums in the logarithmic growth phase, collect the cells and prepare a uniform cell suspension of known concentration, and then add the cell suspension to the 96-well cell culture plate solution so that each well contains 4000 cells. Put it into a […] incubator and incubate at 37° C. for 20-24 h. On the second day, the fully dissolved, 3-fold serially diluted compound was added to each cell culture well, so that the final maximum concentration in the cell culture well was 20 uM, and the culture was continued for 96 hours. In this test, Promega's cell viability detection test is used for detection. The more the cells proliferate, the stronger the final signal intensity will be. The detection instrument is SpectraMax, full wavelength mode. The wells only added with DMSO were used as positive control wells, and the wells that were not inoculated with cells were used as negative control wells. […] The IC50 value of cell proliferation inhibition was used to evaluate the inhibitory effect of the compound on the Wnt pathway and the toxic effect on normal cells (Table 3).

Compound	IC50 (Colo205) [nM]	IC50 (DU4475) [nM]	IC50 (RKO) [µM]	IC50 [1] [nM]	IC50 (HepG2) [nM]
C[C@H]1C(=O)N2CCCc3nc(NCc4ccc(OC5CCC(F)(F)CC5)nc4)nc(c32)N1C [98 (W188)]	31	31	> 10		
CC(C)[C@H]1C(=O)N2CCCc3nc(NCc4ccc(Oc5cnc(C(F)(F)F)nc5)nc4)nc(c32)N1C [159 (W259)]	4.6	< 0.5	> 10	2	
COC[C@H]1Cn2ccc3nc(NCc4ccc(OC5CCC(F)(F)CC5)nc4)nc(c32)N1C [85 (W132)]	8.3	11.6	5.5	7	
[2H]C([2H])([2H])OC[C@@]1(C)C(=O)N2CCCc3nc(NCc4ccc(Oc5ccc(C(F)(F)F)nc5)nc4)nc(c32)N1C([2H])([2H])[2H] [182 (W395)]	10.9		> 10	7	24
CN1c2nc(NCc3ccc(Oc4cnc(C(F)(F)F)nc4)nc3)nc3c2N(CCC3)C(=O)[C@@H]1C(C)(C)O [145 (W331)]	43	53	> 10		
C[C@H]1C(=O)N2CCCc3nc(NCc4cnc(Oc5ccc(C(F)(F)F)nc5)c(C#N)c4)nc(c32)N1C [238 (W426)]	24.6		> 10	27.3	25.8
O=C1[C@@H]2COCCN2c2nc(NCc3ccc(Oc4ccc(C(F)(F)F)nc4)nc3)nc3c2N1CCC3 [124 (W278), (S)-2-(((6-((6-(trifluoromethyl)pyridin-3-yl)oxo)pyridin-3-yl)methyl)amino)-5,6,8a,9, 11,12-Hexahydro-4H,8H-[1,4]oxazino[3,4-h]pyrido[3,2,1-de]pteridin-8-one]	152	51	> 10		
CN1c2nc(NCc3ccc(Oc4cnc(C(F)(F)F)nc4)nc3)nc3c2N(CCC3)C(=O)[C@@H]1c1cccc(F)c1 [174 (W314)]	66	37	> 10		
CC(C)[C@H]1C(=O)N2CCCc3nc(NCc4ccc(Cn5ccc(C(F)(F)F)n5)nc4)nc(c32)N1C [148 (W250)]	27	13	> 10	31	
COC[C@H]1C(=O)N2CCCc3nc(NCc4ccc(Oc5cnc(C(F)(F)F)nc5)nc4)nc(c32)N1C [154 (W258)]	37	30	> 10	30	
CN1c2nc(NCc3ccc(Oc4ccc(C(F)(F)F)nc4)nc3)nc3c2N(CCC3)C(=O)[C@@H]1C(C)(C)O [122 (W272), (S)-5-(2-hydroxypropan-2-yl)-4-methyl-2-(((6-((6-(trifluoromethyl)pyridin-3-yl)oxo)pyridine-3-yl)methyl)amino)-4,5,9,10-tetrahydro-6H,8H-pyrido[3,2,1-de]pteridin-6-one]	87	58	> 10		
CN1c2nc(NCc3ccc(Oc4cc(C(F)(F)F)nn4C4CCOC4)nc3)nc3c2N(CCC3)C(=O)[C@]1(C)CO (some centres unmarked) [234 (W420)]	51		> 10		66.2
CO[C@@H](C)[C@H]1C(=O)N2CCCc3nc(NCc4ccc(Oc5ccc(C(F)(F)F)nc5)nc4)nc(c32)N1C [113 (W247), (S)-5-((S)-1-methoxyethyl)-4-methyl-2-(((6-((6-(trifluoromethyl)pyridin-3-yl)oxo)pyridin-3-yl)methyl)amino)-4,5,9,10-tetrahydro-6H,8H-pyrido[3,2,1-de]pteridin-6-one]	48	64	> 10	31	
CO[C@H](C)[C@H]1C(=O)N2CCCc3nc(NCc4ccc(Oc5cnc(C(F)(F)F)nc5)nc4)nc(c32)N1C [156 (W264)]	27	13	> 10	39	
[2H]C([2H])([2H])OC[C@H]1C(=O)N2CCCc3nc(NCc4ccc(Oc5cnc(C(F)(F)F)nc5)nc4)nc(c32)N1C([2H])([2H])[2H] [132 (W383), (S)-5-((methoxy-d3)methyl)-4-(methyl-d3)-2-(((6-((2-(trifluoromethyl)pyrimidin-5-yl)oxo)pyridin-3-yl)methyl)amino)-4,5,9,10-tetrahydro-6H,8H-pyrido[3,2,1-de]pteridin-6-one]	25		> 10	42	
CN1c2nc(NCc3ccc(Oc4ccc(C(F)(F)F)nc4)nc3)nc3c2N(CCC3)C(=O)[C@@H]1C(F)(F)F [185 (W310)]	63	99	> 10	69	
COCCC1C(=O)N2CCCc3nc(NCc4ccc(Oc5ccc(C(F)(F)F)nc5)nc4)nc(c32)N1C (centres unmarked) [213 (W355)]	53		> 10	69	
O=C1[C@@H]2CCCN2c2nc(NCc3ccc(Oc4cnc(C(F)(F)F)nc4)nc3)nc3c2N1CCC3 [157 (W262)]	31	18	> 10	24	
C[C@H]1C(=O)N2CCCc3nc(NCc4cnn(Cc5cc(C(F)(F)F)nn5C5CC5)c4)nc(c32)N1C [230 (W415)]	42		> 10		50.8
C[C@H]1C(=O)N2CCCc3nc(NCc4ccc(Cc5ccc(C(F)(F)F)cc5)nc4)nc(c32)N1C [138 (W271), (S)-4,5-dimethyl-2-(((6-(4-(trifluoromethyl)benzyl)pyridin-3-yl)methyl)amino)-4,5,9, 10-tetrahydro-6H,8H-pyrido[3,2,1-de]pteridin-6-one]	48	40	> 10	25	
